This is an account of results in US20090170851A1, “Chroman Compounds” (priority 2005, published 2009).

Each structure is given as a SMILES string.

As usually defined, the melting point is the temperature, or range, at which the solid turns liquid.

With `CCC(=O)N1CCN(c2ccc(NC(=O)C3CCc4cc(F)cc(N5CCN(C)CC5)c4O3)cc2)CC1` (stereo not drawn) [Example 32, 6-fluoro-8-(4-methylpiperazin-1-yl)-N-(4-(4-proprionyl-piperazin-1-yl)phenyl)chroman-2-carboxamide], the melting point fell in the range of 160 to 165 °C.
For `COc1cc2c(c(N3CCN(C)CC3)c1)OC(C(=O)Nc1ccc(N3CCN(C)CC3)cc1)CC2` (stereo not drawn) [Example 35, 6-methoxy-8-(4-methylpiperazin-1-yl)-N-(4-(4-methylpiperazin-1-yl)phenyl)chroman-2-carboxamide], the melting point fell in the range of 180 to 190 °C.
In turn, `CN1CCN(c2ccc(NC(=O)C3CCc4cc(F)cc(N5CCN(C)CC5)c4O3)cc2)CC1` (stereo not drawn) [Example 41, 6-fluoro-8-(4-methylpiperazin-1-yl)-N-(4-(4-methylpiperazin-1-yl)phenyl)chroman-2-carboxamide] displayed a melting point of 150 to 160 °C.
